Each structure is given as a SMILES string. Active and inactive are the calls of the source.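 The calls were made as follows: active = compounds lowering cell viability whose fitted half-effect dose is at most ten times the top tested dose; inconclusive = flat curve with moderate viability loss, or a poor fit; inactive = the rest.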

In one experiment the test system is DRD HRASV12-transformed BJ fibroblasts viability, Alamar Blue, 48 h. The experiment is described as follows: growth inhibition of HRAS-transformed DRD cells – cell-based, secondary screen, plate reader, dry powder, set 4, dose response (AID 540315).
Settings: not given
As a reminder, the AC50 is the midpoint of the concentration-response curve, whichever way the signal moves. Consider `O=C(c1ccc([N+](=O)[O-])o1)N1CCN(C(c2ccc(F)cc2)c2ccc(F)cc2)CC1`, for which the half-maximal activity concentration (AC50) is 10.7 µM. Take `CCOc1ccccc1-n1c(C(C)N2CCN(C(=O)COc3ccc(Cl)cc3)CC2)nc2ccccc2c1=O` (centres undefined): the AC50 was 2.16 µM. In the case of `Cc1onc(C(=O)N2CCN(C(c3ccccc3)c3ccccc3)CC2)c1[N+](=O)[O-]`, the half-maximal activity concentration (AC50) was 2.64 µM. Turning to `COC(=O)c1ccc([C@@H]2c3[nH]c4ccccc4c3C[C@@H](C(=O)OC)N2C(=O)CCl)cc1`, the AC50 was 0.604 µM.

As to `Cc1onc(C(=O)N2CCN(C(c3ccc(F)cc3)c3ccc(F)cc3)CC2)c1[N+](=O)[O-]`, the AC50 is 0.784 µM. Regarding `O=C(NCCNC(c1ccccc1)c1ccccc1)c1ccc([N+](=O)[O-])o1`, the half-maximal activity concentration (AC50) was 5.59 µM. As to `Cc1onc(C(=O)NCCNC(c2ccccc2)c2ccccc2)c1[N+](=O)[O-]`, the half-maximal activity concentration (AC50) was 43.8 µM.

In the case of `Cc1onc(C(=O)N2CCCN(C(c3ccccc3)c3ccccc3)CC2)c1[N+](=O)[O-]`, the concentration at half-maximal activity (AC50) was 3.87 µM. Consider `COc1ccc(C(c2ccc(OC)cc2)N2CCN(C(=O)c3noc(C)c3[N+](=O)[O-])CC2)cc1`, for which the AC50 is 4.37 µM.

Regarding `COc1ccc(C(c2ccc(OC)cc2)N2CCN(C(=O)c3ccc([N+](=O)[O-])o3)CC2)cc1`, the AC50 is 5.84 µM. Turning to `Cc1onc(CC(=O)N2CCN(C(c3ccc(F)cc3)c3ccc(F)cc3)CC2)c1[N+](=O)[O-]`, the AC50 was 30.9 µM.

As to `Cc1onc(C(=O)N2CCN(C(c3ccccc3)c3ccc(Cl)cc3)CC2)c1[N+](=O)[O-]` (centres undefined), the half-maximal activity concentration (AC50) is 0.585 µM. Turning to `Cc1onc(C(=O)N2CCN(C(c3ccc(Cl)cc3)c3ccc(Cl)cc3)CC2)c1[N+](=O)[O-]`, the AC50 is 0.287 µM.

Tested on in the next experiment: not listed separately
The experiment is described as above. Particulars: DRD HRASV12-transformed BJ fibroblasts viability, Alamar Blue, 48 h; at 48 µM (top of the series).
On to `Cc1onc(C(=O)N2CCN(Cc3ccccc3)CC2)c1[N+](=O)[O-]`, for which the activity change, negative = viability loss is -2.4% (inactive).
